Assay results: US11415579B2, “Assay for measuring a rate of reaction between a target and a ligand candidate” (Imperial College Innovations Ltd., priority 2016, dated 2022)
Where “and” joins values, the source holds several entries; their conditions need not be identical. Equal values may be shown once.

Tests used:
Cdk2(T182C) (C177A) = molecular target: T1, Cdk2(T182C) (C177A) (Homo sapiens, UniProt P24941, C177A/T182C); assay: Kinetic thiol consumption assay with Cdk2 mutant T182C; type: binding; parameters: key to Rate enhancement, Cdk2 T182C: rate constant with Cdk2 ÷ rate constant with model thiol (fold); conditions: additional mutation C177A; for Rate constant with Cdk2 T182C: Protein: Cdk2, cysteine position T182C, in h^-1
T1 construct: poly-histidine; made in house; host or cells: E. coli
In short: (§1)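 His-tagged single-surface-cysteine Cdk2 mutants (C177A background) from E. coli, 5 μM in degassed phosphate buffer pH 8, pre-treated with immobilized TCEP beads. Fluorescence (ex/em 380/470 nm) read after 1 h at room temperature, normalized to DMSO/thiol-only control; first-order decay fits gave rate constants, divided by model-thiol rate for rate enhancement.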

Cdk2(R122C) (C177A) = molecular target: T2, Cdk2(R122C) (C177A) (Homo sapiens, UniProt P24941, C177A/R122C); assay: Kinetic thiol consumption assay with Cdk2 mutant R122C; type: binding; parameters: key to Rate enhancement, Cdk2 R122C: rate constant with Cdk2 ÷ rate constant with model thiol (fold); conditions: additional mutation C177A; for Rate constant with Cdk2 R122C: Protein: Cdk2, cysteine position R122C, in h-1
T2 construct: poly-histidine; made in house; host or cells: E. coli
In short: as §1

Cdk2(H71C) (C177A) = molecular target: T3, Cdk2(H71C) (C177A) (Homo sapiens, UniProt P24941, C177A/H71C); assay: Kinetic thiol consumption assay with Cdk2 mutant H71C; type: binding; parameters: key to Rate enhancement, Cdk2 H71C: rate constant with Cdk2 ÷ rate constant with model thiol (fold); conditions: additional mutation C177A; for Rate constant with Cdk2 H71C: Protein: Cdk2, cysteine position H71C, in h^-1
T3 construct: poly-histidine; made in house; host or cells: E. coli
In short: as §1

Cdk2(S276C) (C177A) = molecular target: T4, Cdk2(S276C) (C177A) (Homo sapiens, UniProt P24941, C177A/S276C); assay: Kinetic thiol consumption assay with Cdk2 mutant S276C; type: binding; parameters: key to Rate enhancement, Cdk2 S276C: rate constant with Cdk2 ÷ rate constant with model thiol (fold); conditions: additional mutation C177A; for Rate constant with Cdk2 S276C: Protein: Cdk2, cysteine position S276C, in h^-1
T4 construct: poly-histidine; made in house; host or cells: E. coli
In short: as §1

Cdk2(C177A, F80C) = molecular target: T5, Cdk2(C177A, F80C) (Homo sapiens, UniProt P24941, C177A/F80C); assay: Kinetic thiol consumption assay with Cdk2 mutant F80C, incl. kobs versus concentration (Kd, k2); type: binding; parameters: key to Rate enhancement, Cdk2 F80C: Cdk2 rate constant divided by model-thiol rate constant; conditions: additional mutation C177A; for Rate constant with Cdk2 F80C: Protein: Cdk2, cysteine position F80C, in h^-1
T5 construct: poly-histidine; made in house; host or cells: E. coli
In short: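 His-tagged Cdk2(C177A/F80C) from E. coli or model thiol, 5 μM in degassed phosphate buffer pH 8 with TCEP beads, reacted with acrylamide ligands; fluorescence (ex/em 380/470 nm) normalized to DMSO control and fitted to first-order decay for kobs. Kd and k2 obtained from hyperbolic fit of kobs versus ligand concentration.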

Cdk2(S181C) (C177A) = molecular target: T6, Cdk2(S181C) (C177A) (Homo sapiens, UniProt P24941, C177A/S181C); assay: Kinetic thiol consumption assay with Cdk2 mutant S181C; type: binding; parameters: key to Rate enhancement, Cdk2 S181C: rate constant with Cdk2 ÷ rate constant with model thiol (fold); conditions: additional mutation C177A; for Rate constant with Cdk2 S181C: Protein: Cdk2, cysteine position S181C, in h^-1
T6 construct: poly-histidine; made in house; host or cells: E. coli
In short: as §1

Cdk2(N272C) (C177A) = molecular target: T7, Cdk2(N272C) (C177A) (Homo sapiens, UniProt P24941, C177A/N272C); assay: Kinetic thiol consumption assay with Cdk2 mutant N272C; type: binding; parameters: key to Rate enhancement, Cdk2 N272: rate constant with Cdk2 ÷ rate constant with model thiol (fold); conditions: for Rate enhancement, Cdk2 N272: Cdk2 N272, additional mutation C177A; for Rate constant with Cdk2 N272C: Protein: Cdk2, cysteine position N272C, additional mutation C177A, in h^-1
T7 construct: poly-histidine; made in house; host or cells: E. coli
In short: as §1

[1] = molecular target: T8, human cyclin-dependent kinase 2 (Cdk2) (Homo sapiens, UniProt P24941); assay: Kinetic thiol consumption assay with wild type Cdk2 (C177); type: binding; parameters: key to Rate enhancement, Cdk2 WT: k(Cdk2) divided by k(model thiol); Rate constant with Cdk2 (k(Cdk2)): unit not given here; conditions: for Rate constant with Cdk2 (k(Cdk2)): 500 μM ligand, 5 μM thiol, phosphate buffer pH 8; for Rate enhancement, Cdk2 WT: no additional mutations; for Rate constant with Cdk2 WT: Protein: Cdk2, cysteine position WT, in h^-1; for k(Cdk2)/k(Cdk2_mut) rate enhancement: model thiol Cdk2[C177A, F80C, K278C]; for k(Cdk2)/k(GSH) rate enhancement: model thiol glutathione
T8 construct: poly-histidine; made in house; host or cells: E. coli
In short: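 His-tagged human Cdk2 (single surface cysteine C177), expressed in E. coli, or a model thiol at 5 μM in degassed phosphate buffer pH 8 was pre-treated with immobilized TCEP beads (2% v/v) before acrylamide addition. Fluorescence (ex/em 380/470 nm) was read after 1 h at room temperature, normalized to DMSO/thiol-only control and plotted versus time.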

[2] = Kinetic thiol consumption assay with model thiol glutathione; type: physicochemical; parameters: Rate constant with glutathione (k(GSH)): unit not given here; conditions: for Rate constant with glutathione (k(GSH)): 500 μM ligand, 5 μM thiol, phosphate buffer pH 8; for Rate constant with Glutathione: Protein: Glutathione, cysteine position NA, in h-1
In short: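 GSH 5 μM, degassed phosphate buffer pH 8, TCEP beads 2% v/v; acrylamide added; RT, 1 h; fluorescence ex/em 380/470 nm; normalized to DMSO/thiol control; k from first-order exponential decay fit.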

Cdk2[C177A, F80C, K278C] = molecular target: T9, Cdk2[C177A, F80C, K278C] (Homo sapiens, UniProt P24941, C177A/F80C/K278C); assay: Kinetic thiol consumption assay with mutant Cdk2 as model thiol; type: binding; parameters: unit not given here; conditions: 500 μM ligand, 5 μM thiol, phosphate buffer pH 8
T9 construct: poly-histidine; made in house; host or cells: E. coli
In short: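 Model thiol: His-tagged human Cdk2 C177A/F80C/K278C (two engineered surface cysteines), E. coli-expressed, 5 μM in degassed phosphate buffer pH 8 with immobilized TCEP beads (2% v/v). Fluorescence (ex/em 380/470 nm) followed over time at room temperature, normalized to DMSO/thiol control. First-order decay fit gives rate constants.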

| SMILES | Rate enhancement, Cdk2 T182C (Cdk2(T182C) (C177A)) | Rate constant with Cdk2 T182C (Cdk2(T182C) (C177A)) | Rate enhancement, Cdk2 R122C (Cdk2(R122C) (C177A)) | Rate enhancement, Cdk2 H71C (Cdk2(H71C) (C177A)) | Rate constant with Cdk2 H71C (Cdk2(H71C) (C177A)) | Rate enhancement, Cdk2 S276C (Cdk2(S276C) (C177A)) | Rate constant with Cdk2 S276C (Cdk2(S276C) (C177A)) | Rate enhancement, Cdk2 F80C (Cdk2(C177A, F80C)) | Rate constant with Cdk2 F80C (Cdk2(C177A, F80C)) | Rate enhancement, Cdk2 S181C (Cdk2(S181C) (C177A)) | Rate enhancement, Cdk2 N272 (Cdk2(N272C) (C177A)) | Rate constant with Cdk2 N272C (Cdk2(N272C) (C177A)) | Rate constant with Cdk2 (k(Cdk2)) [1] | Rate enhancement, Cdk2 WT [1] | Rate constant with Cdk2 WT [1] | k(Cdk2)/k(Cdk2_mut) rate enhancement [1] | k(Cdk2)/k(GSH) rate enhancement [1] | Rate constant with glutathione (k(GSH)) [2] | Rate constant with Glutathione [2] | Rate constant with Cdk2[C177A, F80C, K278C] (k(Cdk2_mut)) (Cdk2[C177A, F80C, K278C]) | other results |
| --- | --- | --- | --- | --- | --- | --- | --- | --- | --- | --- | --- | --- | --- | --- | --- | --- | --- | --- | --- | --- | --- |
| C=CC(=O)NCCNC(=O)C1CCCN1S(=O)(=O)c1ccccc1 (stereo not drawn) [CA-224] | 1.292 | 0.004866 | 0 | 0.8417 | 0.003169 | 0.1717 | 0.0006465 | 0.1623 | 0.000611 | 0 | 0.5596 | 0.002107 | 0.00155 | 0.4112 | 0.001548 | 0.4329 | 0.3045 | 0.00508 | 0.003765 | 0.00358 |  |
| C=CC(=O)N1CCCC(N2C(=O)CC3(CCCC3)C2=O)C1 (stereo not drawn) [CA-236] | 1.042 | 0.009576 | 0.2009 | 0.1903 | 0.001749 | 0.0707 | 0.0006497 | 0.4074 | 0.003744 | 0.2301 | 0.09859 | 0.0009059 | 0.00116 | 0.1258 | 0.001156 | 0.2924 | 0.2286 | 0.00506 | 0.009189 | 0.00395 | Rate constant with Cdk2 R122C (Cdk2(R122C) (C177A)): 0.001846; Rate constant with Cdk2 S181C (Cdk2(S181C) (C177A)): 0.002114 |
| C=CC(=O)Nc1ccccc1C(=O)c1ccccc1 [EL-1004] | 7.09 | 0.1284 | 0.9845 | 2.131 | 0.03859 | 1.281 | 0.02319 | 22.32 | 0.4042 | 0.9371 | 0.4117 | 0.007455 | 0.06444 | 3.558 | 0.06444 | 0.3351 | 3.545 | 0.01818 | 0.01811 | 0.1923 | Rate constant with Cdk2 R122C (Cdk2(R122C) (C177A)): 0.01783; Rate constant with Cdk2 S181C (Cdk2(S181C) (C177A)): 0.01697 |
| C=CC(=O)Nc1cccc(C(F)(F)F)c1 [EL-1007] | 2.5 | 0.06154 | 0.6852 | 0.2924 | 0.007199 | 1.314 | 0.03236 | 1.215 | 0.02991 | 0.487 | 0.3406 | 0.008386 | 0.035 and 0.03473 | 1.411 | 0.03473 | 0.5928 | 1.4 and 1.411 | 0.025 and 0.02461 | 0.02462 | 0.05859 | Rate constant with Cdk2 R122C (Cdk2(R122C) (C177A)): 0.01687; Rate constant with Cdk2 S181C (Cdk2(S181C) (C177A)): 0.01199; hit classification, Example 1 ([1]; hits defined as kCdk2/kGSH>5.8 (3 standard deviations over the mean)): negative compound |
| C=CC(=O)Nc1ccccc1-c1ccccc1 [EL-1012] | 2.136 | 0.0172 | 0.6595 | 0.3662 | 0.002949 | 0.2841 | 0.002288 | 1.711 | 0.01378 | 0.7584 | 0 |  | 0.00519 | 0.6362 | 0.005124 | 0.1479 | 0.6204 | 0.00837 | 0.008054 | 0.03512 | Rate constant with Cdk2 R122C (Cdk2(R122C) (C177A)): 0.005312; Rate constant with Cdk2 S181C (Cdk2(S181C) (C177A)): 0.006108 |
